Laboratory results: ChEMBL document CHEMBL5370535, “Thiazolyl hydrazineylidenyl indolones as unique potential multitargeting broad-spectrum antimicrobial agents” (Eur J Med Chem, 2023)
Values after ≈ are worked out from the molar mass of the structure shown. Active and inactive are the calls of the source. The rule behind the calls is not given here.

Assays:
Enterococcus faecalis = assay: Antibacterial activity against Enterococcus faecalis assessed as bacterial growth inhibition incubated for 24 hrs by CLSI based two serial dilution assay; type: functional
Escherichia coli [1] = assay: Antibacterial activity against Escherichia coli assessed as bacterial growth inhibition incubated for 24 hrs by CLSI based two serial dilution assay; type: functional
Staphylococcus aureus [2] = assay: Antibacterial activity against methicillin-resistant Staphylococcus aureus assessed as bacterial growth inhibition incubated for 24 hrs by CLSI based two serial dilution assay; type: functional
Pseudomonas aeruginosa [3] = assay: Antibacterial activity against Pseudomonas aeruginosa assessed as bacterial growth inhibition incubated for 24 hrs by CLSI based two serial dilution assay; type: functional
Klebsiella pneumoniae = assay: Antibacterial activity against Klebsiella pneumoniae assessed as bacterial growth inhibition incubated for 24 hrs by CLSI based two serial dilution assay; type: functional
Acinetobacter baumannii = assay: Antibacterial activity against Acinetobacter baumannii assessed as bacterial growth inhibition incubated for 24 hrs by CLSI based two serial dilution assay; type: functional
Escherichia coli [4] = assay: Antibacterial activity against Escherichia coli 25922 assessed as bacterial growth inhibition incubated for 24 hrs by CLSI based two serial dilution assay; type: functional
Staphylococcus aureus [5] = assay: Induction of resistance development in methicillin-resistant Staphylococcus aureus assessed as fold increase in MIC measured after consecutive passages for 24 hrs by serial passaging assay; type: functional
Staphylococcus aureus [6] = assay: Antibacterial activity against Staphylococcus aureus assessed as bacterial growth inhibition incubated for 24 hrs by CLSI based two serial dilution assay; type: functional
Pseudomonas aeruginosa [7] = assay: Antibacterial activity against Pseudomonas aeruginosa ATCC 27853 assessed as bacterial growth inhibition incubated for 24 hrs by CLSI based two serial dilution assay; type: functional
Staphylococcus aureus [8] = assay: Antibacterial activity against Staphylococcus aureus 25923 assessed as bacterial growth inhibition incubated for 24 hrs by CLSI based two serial dilution assay; type: functional
Staphylococcus aureus [9] = assay: Antibacterial activity against Staphylococcus aureus 29213 assessed as bacterial growth inhibition incubated for 24 hrs by CLSI based two serial dilution assay; type: functional
Staphylococcus aureus [10] = assay: Bactericidal activity against methicillin-resistant Staphylococcus aureus assessed as increase in apoptotic cells by measuring red fluorescence intensity at 4 times MIC measured upto 250 min by fluorescence microscopic analysis; type: functional, organism-based
Candida albicans [11] = assay: Antifungal activity against Candida albicans ATCC 90023 assessed as inhibition of fungal growth incubated for 24 hrs by CLSI based two serial dilution assay; type: functional
Staphylococcus aureus [12] = assay: Induction of morphological changes in methicillin-resistant Staphylococcus aureus assessed as cracking of cells at 4 times MIC incubated for 4 hrs by scanning electron microscopic analysis; type: functional, organism-based
Candida parapsilosis = assay: Antifungal activity against Candida parapsilosis ATCC 22019 assessed as inhibition of fungal growth incubated for 24 hrs by CLSI based two serial dilution assay; type: functional; conditions: Lodderomyces parapsilosis
Staphylococcus aureus [13] = assay: Antibiofilm activity against methicillin-resistant Staphylococcus aureus assessed as inhibition of biofilm formation at 4 microg/ml incubated for 24 hrs by crystal violet staining based assay; type: functional; design: scale not given: the % may be the effect or the level left; conditions: dose 4 µg/ml
Staphylococcus aureus [14] = assay: Bactericidal activity against methicillin-resistant Staphylococcus aureus assessed as increase in apoptotic cells at 4 times MIC by fluorescence microscopic analysis; type: functional, organism-based; conditions: time <= 250.0 min
Cell membrane [15] = assay: Induction of membrane depolarization in methicillin-resistant Staphylococcus aureus assessed as increase in fluorescence intensity at 4 times MIC measured at 5 min by DiSC35 dye-based fluorescence assay; type: subcellular
[16] = Cytotoxicity against human BEAS-2B cells assessed as survival rate at 0.5 to 64 microg/ml incubated for 24 hrs by MTT assay; type: toxicity, cell-based; conditions: at 0.5 to 64 µg/mL, dose 0.5-64 µg/ml, read-out: Activity
Staphylococcus aureus [17] = assay: Antibiofilm activity against methicillin-resistant Staphylococcus aureus assessed as decrease in metabolic activity at 1 to 16 microg/ml measured for 6 hrs by alamar blue staining based assay; type: functional, organism-based; conditions: dose 1-16 µg/ml
Candida tropicalis = assay: Antifungal activity against Candida tropicalis assessed as inhibition of fungal growth incubated for 24 hrs by CLSI based two serial dilution assay; type: functional
Cell membrane [18] = assay: Induction of cell membrane permeability in Staphylococcus aureus assessed as increase in fluorescence intensity measured upto 135 mins by propidium iodide staining based fluorescence assay; type: subcellular
Staphylococcus aureus [19] = assay: Induction of morphological changes in methicillin-resistant Staphylococcus aureus assessed as membrane deformations at 4 times MIC incubated for 4 hrs by scanning electron microscopic analysis; type: functional, organism-based
Cell membrane [20] = assay: Induction of membrane depolarization in methicillin-resistant Staphylococcus aureus assessed as increase in fluorescence intensity at 1 times MIC by DiSC35 dye-based fluorescence assay; type: subcellular; conditions: time 1.0 hrs, TDE = time-dependent effect
Calf thymus DNA [21] = assay: Binding affinity to calf thymus DNA by UV/vis spectrophotometric analysis; type: nucleic-acid assay; conditions: Bos taurus; dose 4.0 10^-5mol/L
Candida albicans [22] = assay: Antifungal activity against Candida albicans assessed as inhibition of fungal growth incubated for 24 hrs by CLSI based two serial dilution assay; type: functional
Calf thymus DNA [23] = assay: Binding affinity to calf thymus DNA assessed as compound-DNA complex formation at 4 10^-5mol/L by UV/vis spectrophotometric analysis; type: nucleic-acid assay; conditions: Bos taurus
[24] = Hemolytic activity in human RBC assessed as hemolysis at 64 microg/ml incubated for 2 hrs by double-dilution analysis; type: toxicity, cell-based, Erythrocyte; conditions: red blood cells (erythrocytes), at 64 µg/mL, read-out: Activity
Staphylococcus aureus [25] = assay: Antibiofilm activity against methicillin-resistant Staphylococcus aureus assessed as biofilm eradication incubated for 24 hrs by crystal violet staining based assay; type: functional, organism-based; conditions: dose 1-16 µg/ml
Calf thymus DNA [26] = assay: Competitive binding affinity to calf thymus DNA assessed as compound-DNA complex formation upto 2 10^-5mol/L in presence of neutral red by UV/vis spectrophotometric analysis; type: nucleic-acid assay; conditions: Bos taurus
Cell membrane [27] = assay: Induction of cell membrane disruption in methicillin-resistant Staphylococcus aureus assessed as increase in protein leakage at 16 microg/ml incubated for 8 hrs; type: subcellular; conditions: dose 16.0 µg/ml
Aspergillus fumigatus = assay: Antifungal activity against Aspergillus fumigatus assessed as inhibition of fungal growth incubated for 24 hrs by CLSI based two serial dilution assay; type: functional
Staphylococcus aureus [28] = assay: Bactericidal activity against methicillin-resistant Staphylococcus aureus assessed as reduction in viable bacteria at 4 times MIC measured at 30 mins by fluorescence microscopic analysis; type: functional, organism-based

Structure (SMILES) | MIC (Enterococcus faecalis) | MIC (Escherichia coli [1]) | MIC (Staphylococcus aureus [2]) | MIC (Pseudomonas aeruginosa [3]) | MIC (Klebsiella pneumoniae) | MIC (Acinetobacter baumannii) | MIC (Escherichia coli [4]) | MIC (Staphylococcus aureus [6]) | MIC (Pseudomonas aeruginosa [7]) | MIC (Staphylococcus aureus [8]) | MIC (Staphylococcus aureus [9]) | MIC (Candida albicans [11]) | MIC (Candida parapsilosis) | MIC (Candida tropicalis) | MIC (Candida albicans [22]) | MIC (Aspergillus fumigatus) | further results
CCn1cc(C(=O)O)c(=O)c2cc(F)c(N3CCNCC3)cc21 [NORFLOXACIN] | 4 µM (≈ 1.28 µg/mL) | 16 µM (≈ 5.11 µg/mL) | 4 µM (≈ 1.28 µg/mL) | 2 µM (≈ 0.639 µg/mL) | 4 µM (≈ 1.28 µg/mL) | 8 µM (≈ 2.55 µg/mL) | 8 µM (≈ 2.55 µg/mL) | 1 µM (≈ 0.319 µg/mL) | 0.5 µM (≈ 0.16 µg/mL) | 1 µM (≈ 0.319 µg/mL) | 2 µM (≈ 0.639 µg/mL) | – | – | – | – | – | fold change (FC) (Staphylococcus aureus [5]): 4
CCCCN1C(=O)/C(=N\Nc2nccs2)c2ccccc21 | 0.5 µM (≈ 0.15 µg/mL) | 0.5 µM (≈ 0.15 µg/mL) | 0.25 µM (≈ 0.0751 µg/mL) | 0.5 µM (≈ 0.15 µg/mL) | 0.25 µM (≈ 0.0751 µg/mL) | 1 µM (≈ 0.3 µg/mL) | 0.25 µM (≈ 0.0751 µg/mL) | 0.5 µM (≈ 0.15 µg/mL) | 0.5 µM (≈ 0.15 µg/mL) | 0.25 µM (≈ 0.0751 µg/mL) | 0.25 µM (≈ 0.0751 µg/mL) | 0.5 µM (≈ 0.15 µg/mL) | 0.5 µM (≈ 0.15 µg/mL) | 0.5 µM (≈ 0.15 µg/mL) | 0.5 µM (≈ 0.15 µg/mL) | 1 µM (≈ 0.3 µg/mL) | Activity (Staphylococcus aureus [10]): inactive; Activity (Staphylococcus aureus [12]): Active; Activity (Staphylococcus aureus [13]): 30%; Activity (Staphylococcus aureus [14]): Active; Activity (Cell membrane [15]): Active; viability at 24 h [16]: > 75%; Activity (Staphylococcus aureus [17]): Active; Activity (Cell membrane [18]): Active; Activity (Staphylococcus aureus [19]): Active; Activity (Cell membrane [20]): Tde; Activity (Calf thymus DNA [21]): Dose-Dependent Effect; Activity (Calf thymus DNA [23]): Active; hemolysis at 2 h, 64 µg/mL [24]: < 5%; Activity (Staphylococcus aureus [25]): Dose-Dependent Effect; Activity (Calf thymus DNA [26]): Active; Activity (Cell membrane [27]): Active; Activity (Staphylococcus aureus [28]): Active
O=C1Nc2ccccc2/C1=N/Nc1nccs1 | 128 µM (≈ 31.3 µg/mL) | 256 µM (≈ 62.5 µg/mL) | 128 µM (≈ 31.3 µg/mL) | 512 µM (≈ 125 µg/mL) | 512 µM (≈ 125 µg/mL) | 64 µM (≈ 15.6 µg/mL) | 128 µM (≈ 31.3 µg/mL) | 512 µM (≈ 125 µg/mL) | 128 µM (≈ 31.3 µg/mL) | 128 µM (≈ 31.3 µg/mL) | 128 µM (≈ 31.3 µg/mL) | 128 µM (≈ 31.3 µg/mL) | 64 µM (≈ 15.6 µg/mL) | 256 µM (≈ 62.5 µg/mL) | 256 µM (≈ 62.5 µg/mL) | 32 µM (≈ 7.82 µg/mL) | –
